System: 3T3-L1 cells
Assay: Glucose transport assay
Type: cell-based
Settings: differentiated 3T3-L1 preadipocyte cell line, in the absence of insulin; 0.1 μM to 500 μM, 1-4 hours
Text: This assay was used to assess the ability of the compounds of the invention to inhibit phosphatase activity that is involved in the signaling pathway that regulates the insulin-induced facilitated transport of glucose into adipocytes. […] Any compounds of the invention may be tested in this assay.
The cell line used for the glucose transport assay was 3T3-L1, a preadipocyte cell line (American Type Culture Collection CCL92.1) which overexpress the insulin receptor. The 3T3-L1 cells were first differentiated by treating cells under confluent growth in DMEM containing 10% fetal bovine serum (FBS) with 0.5 mM 3-isobutyl-1-methyl-xanthine, 5 μg/ml porcine insulin, […] dexamethasone for 2 days. The cells were then grown in DMEM containing 10% FBS and 5 μg/ml porcine insulin for two days, after which the cells were cultured in DMEM containing only 10% FBS.
Cells for use in the assay were first grown overnight in DMEM media and 1% FBS at 37° C. at 5% CO2. Two hours before use, the overnight media was replaced with serum free DMEM containing 5 mM glucose. […] The wells were washed each with 200 μl PBS which was transferred to the corresponding scintillation vial. ^3 H radioactivity was counted with a Beckman counter.

Compound: CC1CC(=O)c2c(cc3c(-c4c(O)cc(O)c5c(O)c6c(cc45)OC(C)CC6=O)c(O)cc(O)c3c2O)O1 (stereo not shown) [Compound 1]
- uptake of 2-deoxy-3H-glucose: Dose response effect
